For 22 compounds, IC50 results are on record in US9586931B2 (Merck Sharp & Dohme Corp., priority 2012, dated 2017).

pIC50: −log10 of the molar value. Where “and” joins values, the source holds several entries; their conditions need not be identical. Equal entries are not always repeated.

This experiment addresses T1, recombinant human GST-Syk (Homo sapiens, UniProt P43405).
T1 construct: purchased Carna Biosciences 08-176
As to the kind of experiment: Homogeneous Time-Resolved Fluorescence (HTRF) assay for the recombinant human Syk enzyme. The experiment is classed as biochemical. As to conditions: recombinant human GST-Syk 5 pM, ATP 25 μM, 10-dose titration 10 μM to 0.508 nM; read-out: rhSYK Activity IC50. On the procedure:
Syk inhibition may be determined using the following assay protocol:
Homogeneous Time-Resolved Fluorescence (HTRF) assay for the recombinant human Syk enzyme: A recombinant GST-hSyk fusion protein was used to measure potency of compounds to inhibit human Syk activity. […] Final volume of the reaction was 10 μL. Phosphorylation of the peptide was allowed to proceed for 45 minutes at room temperature. To quench the reaction and detect the phosphorylated product, 2 nM of a Europium-anti-phosphotyrosine antibody (Perkin Elmer #AD0161) and 70 nM SA-APC (Perkin-Elmer #CR130-100) were added together in 15 mM Tris pH 7.5, 40 mM EDTA, 0.01% tween 20. Final volume of the quenching solution was 10 μL. The resulting HTRF signal was measured after 30 minutes on an EnVision (Perkin-Elmer) reader using a time-resolved fluorescence protocol.
On the technique in general: Time-resolved FRET reads energy transfer from a long-lived donor to a nearby acceptor.
Usually pIC50 stands for the IC50 on a negative log10 scale, so that one unit is a factor of ten. For the compound `Cc1cc(Nc2nccc(C(F)(F)F)n2)cc(-c2cn(CC(C)(O)C(C)(C)O)nn2)c1` (stereo not shown) [Example 21.28, 2,3-dimethyl-1-[4-(3-methyl-5-{[4-(trifluoromethyl)pyrimidin-2-yl]amino}phenyl)-1H-1,2,3-triazol-1-yl]butane-2,3-diol], the pIC50 was 7.88.
For `Cc1cc(Nc2nccc(C(F)F)n2)cc(-c2cn(CC3(C)CNC(=O)O3)nn2)c1` (single isomer, unassigned) [Example 7.31, 5-{[4-(3-{[4-(difluoromethyl)pyrimidin-2-yl]amino}-5-methylphenyl)-1H-1,2,3-triazol-1-yl]methyl}-5-methyl-1,3-oxazolidin-2-one], the pIC50 is 8.10.
In the case of `Cc1cc(Nc2nccc(C(F)(F)F)n2)cc(-n2cc([C@]3(O)CC[C@@H](C(=O)OC(C)(C)C)CC3)nn2)c1` [Example 15.6, tert-butyl cis-4-hydroxy-4-[1-(3-methyl-5-{[4-(trifluoromethyl)pyrimidin-2-yl]amino}phenyl)-1H-1,2,3-triazol-4-yl]cyclohexanecarboxylate] it was 6.07; in that of `Cc1cc(Nc2nccc(C(F)F)n2)cc(-c2cn(C(C)C(C)(O)CO)nn2)c1` (single isomer, unassigned) [Example 30.4, 3-(4-(3-((4-(Difluoromethyl)pyrimidin-2-yl)amino)-5-methylphenyl)-1H-1,2,3-triazol-1-yl)-2-methylbutane-1,2-diol], 7.94.
To `Cc1cc(Nc2cc(C(F)F)ccn2)nc(-c2cn(CC3CNC(=O)C3)nn2)c1` (single isomer, unassigned) [Example 24.1, 4-((4-(6-((4-(difluoromethyl)pyridin-2-yl)amino)-4-methylpyridin-2-yl)-1H-1,2,3-triazol-1-yl)methyl)pyrrolidin-2-one] belongs 7.91; to `Cc1ccnc(Nc2cc(C)cc(-c3cn(CCO)nn3)n2)c1` [Example 5.18, 2-(4-{4-methyl-6-[(4-methylpyridin-2-yl)amino]pyridin-2-yl}-1H-1,2,3-triazol-1-yl)ethanol], 6.81.
`Cc1cc(Nc2cc(C)c(Cl)cn2)nc(-c2cn(CC(C)(O)C(C)(C)O)nn2)c1` (stereo not shown) [Example 21.10, 1-(4-{6-[(5-chloro-4-methylpyridin-2-yl)amino]-4-methylpyridin-2-yl}-1H-1,2,3-triazol-1-yl)-2,3-dimethylbutane-2,3-diol]: the pIC50 was 7.70.
For `Cc1cc(Nc2cc(C(F)F)ccn2)nc(-c2cn(CC(C)(O)C(C)(C)O)nn2)c1` (stereo not shown) [Example 21.36, 1-[4-(6-{[4-(difluoromethyl)pyridin-2-yl]amino}-4-methylpyridin-2-yl)-1H-1,2,3-triazol-1-yl]-2,3-dimethylbutane-2,3-diol], the negative-log IC50 (pIC50) is 8.09.
With `Cc1cc(Nc2cc(C)c(F)cn2)nc(-c2cn(CC(C)(O)C(C)(C)O)nn2)c1` (stereo not shown) [Example 21.22, 1-(4-{6-[(5-fluoro-4-methylpyridin-2-yl)amino]-4-methylpyridin-2-yl}-1H-1,2,3-triazol-1-yl)-2,3-dimethylbutane-2,3-diol], the pIC50 is 7.07.
On to `Cc1cc(Nc2cc(C(F)(F)F)ccn2)nc(-c2cn(CCC(=O)O)nn2)c1` [Example 5.9, 3-[4-(4-methyl-6-{[4-(trifluoromethyl)pyridin-2-yl]amino}pyridin-2-yl)-1H-1,2,3-triazol-1-yl]propanoic acid], for which the negative logarithm of the IC50 (pIC50) is 7.42.
In the case of `Cc1cc(Nc2nccc(C(F)(F)F)n2)cc(-c2cn(CCO)nn2)c1` [Example 5.1, 2-(4-(3-Methyl-5-((4-(trifluoromethyl)pyrimidin-2-yl)amino)phenyl)-1H-1,2,3-triazol-1-yl)ethanol] it was 7.83.
Turning to `COC(=O)[C@@H](C)Cn1cc(-c2cc(C)cc(Nc3cc(C(F)(F)F)ccn3)n2)nn1` [Example 5.86, methyl (2S)-2-methyl-3-[4-(4-methyl-6-{[4-(trifluoromethyl)pyridin-2-yl]amino}pyridin-2-yl)-1H-1,2,3-triazol-1-yl]propanoate], the pIC50 is 7.18.
In the case of `Cc1cc(Nc2nccc(C(F)F)n2)cc(-c2cn(CC3OC(=O)NC3C)nn2)c1` (single isomer, unassigned) [Example 7.42, 5-{[4-(3-{[4-(difluoromethyl)pyrimidin-2-yl]amino}-5-methylphenyl)-1H-1,2,3-triazol-1-yl]methyl}-4-methyl-1,3-oxazolidin-2-one] it was 7.97.
In the case of `Cc1cc(Nc2cc(C(F)(F)F)ccn2)nc(-c2cn(CC(=O)N3CCC(C(=O)O)CC3)nn2)c1` (racemic) [Example 5.80, 1-{[4-(4-methyl-6-{[4-(trifluoromethyl)pyridin-2-yl]amino}pyridin-2-yl)-1H-1,2,3-triazol-1-yl]acetyl}piperidine-4-carboxylic acid] it was 7.61; in that of `Cc1cc(Nc2cc(OC3CCC3)ccn2)nc(-c2cn(C(C)c3ccc(C(=O)O)cc3)nn2)c1` (stereo not shown) [Example 2.8, 4-{1-[4-(6-{[4-(cyclobutyloxy)pyridin-2-yl]amino}-4-methylpyridin-2-yl)-1H-1,2,3-triazol-1-yl]ethyl}benzoic acid], 5.30; in that of `Cc1cc(Nc2cc(C(C)F)ccn2)nc(-c2cn(CC(C)(O)C(C)(C)O)nn2)c1` (stereo not shown) [Example 21.32, 1-[4-(6-{[4-(1-fluoroethyl)pyridin-2-yl]amino}-4-methylpyridin-2-yl)-1H-1,2,3-triazol-1-yl]-2,3-dimethylbutane-2,3-diol], 7.65.
As for `Cc1cc(Nc2ncc(F)c(C(F)F)n2)cc(-c2cn(C3CCCCC3(C)O)nn2)c1` (single isomer, unassigned) [Example 7.25, 2-[4-(3-{[4-(difluoromethyl)-5-fluoropyrimidin-2-yl]amino}-5-methylphenyl)-1H-1,2,3-triazol-1-yl]-1-methylcyclohexanol], the pIC50 is 7.42.
In the case of `Cc1cc(Nc2cc(C(F)(F)F)ccn2)nc(-c2cn(C3C=CCCCC3)nn2)c1` (stereo not shown) [Example 9.2, 6-(1-cyclohept-2-en-1-yl-1H-1,2,3-triazol-4-yl)-4-methyl-N-[4-(trifluoromethyl)-pyridin-2-yl]pyridin-2-amine], the negative logarithm of the IC50 (pIC50) is 7.27.
In the case of `Cc1cc(Nc2cc(C(C)C)ccn2)nc(-c2cn(C(C)c3ccc(C(=O)O)cc3)nn2)c1` (stereo not shown) [Example 2.13, 4-{1-[4-(4-methyl-6-{[4-(1-methylethyl)pyridin-2-yl]amino}pyridin-2-yl)-1H-1,2,3-triazol-1-yl]ethyl}benzoic acid] it was 8.08.
As to `CC(C)=CCn1cc(-c2cc(C)cc(Nc3cc(C(F)(F)F)ccn3)n2)nn1` [Example 5.37, 4-methyl-6-[1-(3-methylbut-2-en-1-yl)-1H-1,2,3-triazol-4-yl]-N-[4-(trifluoromethyl)pyridin-2-yl]pyridin-2-amine], the negative-log IC50 (pIC50) was 7.52.
As to `Cc1cc(Nc2nccc(C)n2)cc(-c2cn(CC(C)(O)C(C)(C)O)nn2)c1` (stereo not shown) [Example 21.21, 2,3-dimethyl-1-(4-{3-methyl-5-[(4-methylpyrimidin-2-yl)amino]phenyl}-1H-1,2,3-triazol-1-yl)butane-2,3-diol], the pIC50 was 6.72.
Turning to `Cc1cc(Nc2cc(C(F)(F)F)ccn2)nc(-c2cn(C(C)C(=O)O)nn2)c1` (racemic) [Example 5.43, 2-[4-(4-methyl-6-{[4-(trifluoromethyl)pyridin-2-yl]amino}pyridin-2-yl)-1H-1,2,3-triazol-1-yl]propanoic acid], the pIC50 is 7.45 and 7.77.
